Tests used:
[1] = system: monkeys with normal intraocular pressure; experiment: Intraocular pressure lowering effect, present compound and brimonidine concomitantly administered to monkeys; type: in vivo, Cynomolgus monkey; conditions: male cynomolgus monkeys, instillation into one eye, 0.0006 w/v % present compound solution 20 μL, ALPHAGAN P (0.15%) 20 μL
Source text: In order to study the usefulness of a combination of the present compound with an α2-receptor agonist, an intraocular pressure lowering effect when the present compound and brimonidine were concomitantly administered to experimental animals (monkeys with normal intraocular pressure) was examined.
An intraocular pressure lowering effect when the present compound and brimonidine were concomitantly administered was examined. As comparison subjects, intraocular pressure lowering effects when the present compound or brimonidine was administered singly were also examined. As a control, the base and physiological saline were administered.
(§1) Present compound solution: a 0.0006 w/v % present compound solution (instillation amount: 20 μL) […]
(§2) • (1) One drop of a 0.4% oxybuprocaine hydrochloride eye drop (trade name: Benoxil (registered trademark) eye drop (0.4%)) was instilled into both eyes of each experimental animal to effect local anesthesia. • (2) Intraocular pressure was measured immediately before administering the test compound solution, and the measured intraocular pressure was defined as initial intraocular pressure. • (3) The present compound solution was instilled into one eye of each experimental animal (the other eye was not treated). […] The intraocular pressure was measured in triplicate for each eye to obtain an average of three measurements, which is shown as the result. […]

[2] = system: monkeys with normal intraocular pressure; experiment: Intraocular pressure lowering effect, present compound and brinzolamide concomitantly administered to monkeys; type: in vivo, Cynomolgus monkey; conditions: male cynomolgus monkeys, instillation into one eye, 0.0006 w/v % present compound solution 20 μL, Azopt Ophthalmic Suspension (1%) 20 μL
Source text: In order to study the usefulness of a combination of the present compound with a carbonic anhydrase inhibitor, an intraocular pressure lowering effect when the present compound and brinzolamide were concomitantly administered to experimental animals (monkeys with normal intraocular pressure) was examined.
An intraocular pressure lowering effect when the present compound and brinzolamide were concomitantly administered was examined. As comparison subjects, intraocular pressure lowering effects when the present compound or brinzolamide was administered singly were also examined. As a control, the base and physiological saline were administered.
as §1, §2

[3] = system: monkeys with normal intraocular pressure; experiment: Intraocular pressure lowering effect, present compound and latanoprost concomitantly administered to monkeys; type: in vivo, Cynomolgus monkey; conditions: male cynomolgus monkeys, instillation into one eye, 0.0006 w/v % present compound solution 20 μL, Xalatan eye drop (0.005%) 20 μL
Source text: In order to study the usefulness of a combination of the present compound with a prostaglandin, an intraocular pressure lowering effect when the present compound and latanoprost were concomitantly administered to experimental animals (monkeys with normal intraocular pressure) was examined.
An intraocular pressure lowering effect when the present compound and latanoprost were concomitantly administered was examined. As comparison subjects, intraocular pressure lowering effects when the present compound or latanoprost was administered singly were also examined. As a control, the base and physiological saline were administered.
as §1
as §2, with “The intraocular measured in” for “The intraocular pressure was measured in”

[4] = system: rabbits with normal intraocular pressure; experiment: Intraocular pressure lowering effect, present compound and timolol concomitantly administered to rabbits; type: in vivo, Japanese white rabbit; conditions: male JW rabbits, instillation into one eye, 0.001 w/v % present compound solution 50 μL, Timoptol eye drop (0.5%) 50 μL
Source text: In order to study the usefulness of the combination of the present compound with a β-receptor antagonist, an intraocular pressure lowering effect when the present compound and timolol were concomitantly administered to experimental animals (rabbits with normal intraocular pressure) was examined.
An intraocular pressure lowering effect when the present compound and timolol were concomitantly administered was examined. As comparison subjects, intraocular pressure lowering effects when the present compound or timolol was administered singly were also examined. As a control, the base and physiological saline were administered.
Present compound solution: a 0.001 w/v % present compound solution (instillation amount: 50 μL) […]
as §2

Compound	Intraocular pressure lowering degree (change relative to average of control group) at 2 hours after instillation [1]	Intraocular pressure lowering degree (change relative to average of control group) at 4 hours after instillation [2]	Intraocular pressure lowering degree (change relative to average of control group) at 8 hours after instillation [3]	Intraocular pressure lowering degree (change relative to average of control group) at 4 hours after instillation [4]
Brc1c(NC2=NCCN2)ccc2nccnc12 [Brimonidine, brimonidine]	1.8 mmHg			
CCN[C@H]1CN(CCCOC)S(=O)(=O)c2sc(S(N)(=O)=O)cc21 [Brinzolamide, brinzolamide]		1.6 mmHg		
CC(C)OC(=O)CCC/C=C\C[C@@H]1[C@@H](CC[C@@H](O)CCc2ccccc2)[C@H](O)C[C@@H]1O [Latanoprost, latanoprost]			1.5 mmHg	
CC(C)OC(=O)CNc1cccc(CN(Cc2ccc(-n3cccn3)cc2)S(=O)(=O)c2cccnc2)n1 [Present compound, isopropyl (6-{[4-(pyrazol-1-yl)benzyl](pyridin-3-ylsulfonyl)aminomethyl}pyridin-2-ylamino) acetate]	2.6 mmHg	2.5 mmHg	1.6 mmHg	1.6 mmHg
CC(C)(C)NC[C@H](O)COc1nsnc1N1CCOCC1 [Timolol, timolol]				2.3 mmHg

Reference: US20240245668A1, “AGENT FOR TREATING OR PREVENTING GLAUCOMA INCLUDING A SULFONAMIDE COMPOUND AND ANOTHER DRUG” (SANTEN PHARMACEUTICAL CO., LTD., priority 2012, published 2024)
